In patent US9375402B2, “Oral formulations of kinase inhibitors” (VERASTEM, INC., priority 2010, dated 2016):

Experiment: Solubility of SR2516 and SR3406 in selected oils
Format: physicochemical
Settings: shaken overnight at 25 deg C, filtrate, HPLC
Method: This purpose of this study was to select an oil system as the vehicle base for the self-emosifying formulation based on the solubility
Procedure • 1. Add 25 mg of each API in 2 mL eppendoff vial. Record weight. • 2. Weigh out each excipient. Record weight. • 3. Beadbeater 100 sec to mix well. If all dissolved, add additional 5-10 mg each time until excess solid is present. • 4. Use a platform shaker to shake all vials overnight at 25 deg C. • 5. Observe for clarity, presence and relative amount of precipitates. • 6. Filter using spin-X (0.22 um). • 7. Dilute the filtrate to normal concentration for HPLC analysis for drug concentration and purity %. • 8. Keep the filtrate at room temperature and observe for ppt at longer time point(s) if needed. Results Analysis on Filtrate Samples

Row | Compound | Solubility (in Capmul MCM (F2)) | Solubility (in Castor oil (F4)) | Solubility (in Labrafil M 1944 CS (F3)) | Solubility (in Miglyol 812 (F1)) | Solubility (in Oleic acid (F5))
1 | CNC(=O)c1cc(F)ccc1Nc1cc(Nc2ccc(N3CCOCC3)cc2OC)ncc1C(F)(F)F [SR-3406] | 13.6 mg/g | 4.9 mg/g | 1.0 mg/g | 0.3 mg/g | 0.4 mg/g
2 | CNC(=O)c1ccccc1Nc1cc(Nc2ccc(N3CCOCC3)cc2OC)ncc1C(F)(F)F [SR-2516] | 8.4 mg/g | 1.5 mg/g | 2.2 mg/g | 0.3 mg/g | 5.8 mg/g
